# Measurements from patent US20260130933A1, “PHARMACEUTICAL COMPOSITION FOR PREVENTION OR TREATMENT OF NEPHROPATHY AND/OR DIABETES MELLITUS, COMPRISING ENAVOGLIFLOZIN” (DAEWOONG PHARMACEUTICAL CO., LTD., priority 2022, published 2026).
# Assay: Example 2: phase 3 trial, enavogliflozin 0.3 mg vs dapagliflozin 10 mg once a day for 24 weeks added to metformin in patients with type 2 diabetes (same efficacy, exploratory and safety endpoints)
# Type: in vivo, human
# Procedure: Subjects who met the inclusion/exclusion criteria were administered a placebo of the clinical trial drug under single-blind (subject blinding) conditions during a 2-week run-in period while continuing to receive metformin. […] The randomized subjects were administered two tablets of the clinical trial drug for each administration group once a day, and then visited the institution at weeks 6, 12, 18, and 24 during the 24-week administration period to conduct efficacy and safety evaluations.
# • 1. Change in HbA1c at week 24 after administration of clinical trial drug compared to Visit 2 (randomization)
# • 1. Change in HbA1c at each time point of weeks 6, 12, and 18 after administration of clinical trial drug compared to Visit 2 (randomization) • 2. Change in FPG at each time point of weeks 6, 12, 18, and 24 after administration of clinical trial drug compared to Visit 2 (randomization) • 3. Proportion of subjects achieving HbA1c<7% at each time point of weeks 6, 12, 18, and 24 after administration of clinical trial drug • 4. Proportion of subjects achieving HbA1c<6.5% at each time point of weeks 6, 12, 18, and 24 after administration of clinical trial drug • 5. Proportion of subjects achieving therapeutic response (HbA1c change (HbA1c at Visit 2-HbA1c at each evaluation time point)>0.5% or HbA1c<7% at each evaluation time point compared to Visit 2 (randomization)) at each time point of weeks 6, 12, 18 and 24 after administration of clinical trial drug
# • 1. Change in fasting c-peptide at each time point of weeks 6, 12, 18, and 24 after administration of clinical trial drug compared to Visit 2 (randomization) • 2. Change in body weight at each time point of weeks 6, 12, 18, and 24 after administration of clinical trial drug compared to Visit 2 (randomization) • 3. Change in fasting lipid concentration (total cholesterol, LDL-C, HDL-C, and triglycerides) at each time point of weeks 6, 12, 18, and 24 after administration of clinical trial drug compared to Visit 2 (randomization) • 4. Changes in systolic or diastolic blood pressure at each time point of weeks 6, 12, 18, and 24 after administration of clinical trial drug compared to Visit 2 (randomization) • 5. Changes in β-cell function and insulin resistance measured by HOMA-β and HOMA-IR at each time point of weeks 6, 12, 18, and 24 after administration of clinical trial drug compared to Visit 2 (randomization) • 6. Changes in renal function-related indicators (UACR, UGCR) measured by UACR at each time point of weeks 6, 12, 18, and 24 after administration of clinical trial drug compared to Visit 2 (randomization) • 7. Changes in obesity-related indicators (adiponectin, leptin) at each time point of weeks 6, 12, 18, and 24 after administration of clinical trial drug compared to Visit 2 (randomization)
# [1] = Baseline, modified per-protocol set 1, enavogliflozin 0.3 mg, dapagliflozin 10 mg
# [2] = Baseline, per-protocol set, enavogliflozin 0.3 mg, dapagliflozin 10 mg
smiles,measurement,setting,value
"CCOc1ccc(Cc2cc([C@@H]3O[C@H](CO)[C@@H](O)[C@H](O)[C@H]3O)ccc2Cl)cc1 [Dapagliflozin, reference compound]",Incidence of serious adverse drug reactions,24 weeks,7 case
same,"Adiponectin, Mean (SD)","Baseline, PPS",6.6 µg/mL
same,"Adiponectin, Median","Baseline, PPS",5.94 µg/mL
same,"HOMA-IR, Mean (SD)","Baseline, PPS",3.85
same,"HOMA-IR, Median","Baseline, PPS",3.05
same,"HOMA-β, Mean (SD)","Baseline, PPS",44.44
same,"HOMA-β, Median","Baseline, PPS",38.75
same,"Leptin, Mean (SD)","Baseline, PPS",11.76 ng/mL
same,"Leptin, Median","Baseline, PPS",8.32 ng/mL
same,"UACR, Mean (SD)","Baseline, PPS",57.42 g/kg
same,"UACR, Median","Baseline, PPS",15.50 g/kg
same,"UGCR, Mean (SD)","Baseline, PPS",1.83 mg/mg
same,"UGCR, Median","Baseline, PPS",0.15 mg/mg
same,"HDL-C, Mean (SD)","Baseline, mPPS1",46.90(9.17) mg/dL
same,"HDL-C, Median","Baseline, mPPS1",46.00 mg/dL
same,"LDL-C, Mean (SD)","Baseline, mPPS1",76.16(26.27) mg/dL
same,"LDL-C, Median","Baseline, mPPS1",75.00 mg/dL
same,"Triglycerides, Mean (SD)","Baseline, mPPS1",132.92(75.63) mg/dL
same,"Triglycerides, Median","Baseline, mPPS1",115.00 mg/dL
same,"Diastolic blood pressure, Mean (SD)","Baseline, mPPS2",75.92 mmHg
same,"Diastolic blood pressure, Median","Baseline, mPPS2",75.00 mmHg
same,"Systolic blood pressure, Mean (SD)","Baseline, mPPS2",127.44(14.12) mmHg
same,"Systolic blood pressure, Median","Baseline, mPPS2",127.00 mmHg
same,"fasting Total cholesterol, Mean (SD)",[1],137.87(26.64) mg/dL
same,"fasting Total cholesterol, Median",[1],139.00 mg/dL
same,"FPG, Mean (SD)",[2],149.33 mg/dL
same,"FPG, Median",[2],142.00 mg/dL
same,"HbA1c, Mean (SD)",[2],7.68%
same,"HbA1c, Median",[2],7.49%
same,"body weight, Mean (SD)",[2],70.52(11.81) kg
same,"body weight, Median",[2],69.70 kg
same,"fasting c-peptide, Mean (SD)",[2],0.74(0.23) ng/mL
same,"fasting c-peptide, Median",[2],0.71 ng/mL
same,"Adiponectin change from baseline, ANCOVA LS mean (SE)","Week 6, PPS",0.8 µg/mL
same,"Adiponectin change from baseline, Mean (SD)","Week 6, PPS",0.77 µg/mL
same,"Adiponectin change from baseline, Median","Week 6, PPS",0.51 ng/mL
same,"Adiponectin, Mean (SD)","Week 6, PPS",7.4 µg/mL
same,"Adiponectin, Median","Week 6, PPS",6.36 µg/mL
same,"HOMA-IR change from baseline, ANCOVA LS mean (SE)","Week 6, PPS",−1.31
same,"HOMA-IR change from baseline, Mean (SD)","Week 6, PPS",−1.46
same,"HOMA-IR change from baseline, Median","Week 6, PPS",−1.03
same,"HOMA-IR, Mean (SD)","Week 6, PPS",2.34
same,"HOMA-IR, Median","Week 6, PPS",2.07
same,"HOMA-β change from baseline, ANCOVA LS mean (SE)","Week 6, PPS",−1.79
same,"HOMA-β change from baseline, Mean (SD)","Week 6, PPS",−2.83
same,"HOMA-β change from baseline, Median","Week 6, PPS",1.10
same,"HOMA-β, Mean (SD)","Week 6, PPS",41.10
same,"HOMA-β, Median","Week 6, PPS",42.20
same,"Leptin change from baseline, ANCOVA LS mean (SE)","Week 6, PPS",-1.62 ng/mL
same,"Leptin change from baseline, Mean (SD)","Week 6, PPS",-1.61 ng/mL
same,"Leptin change from baseline, Median","Week 6, PPS",-1.46 ng/mL
same,"Leptin, Mean (SD)","Week 6, PPS",9.85 ng/mL
same,"Leptin, Median","Week 6, PPS",5.51 ng/mL
same,"UACR change from baseline, ANCOVA LS mean (SE)","Week 6, PPS",8.13 g/kg
same,"UACR change from baseline, Mean (SD)","Week 6, PPS",4.49 g/kg
same,"UACR change from baseline, Median","Week 6, PPS",0.00 g/kg
same,"UACR, Mean (SD)","Week 6, PPS",62.95 g/kg
same,"UACR, Median","Week 6, PPS",13.90 g/kg
same,"UGCR change from baseline, ANCOVA LS mean (SE)","Week 6, PPS",50.10 mg/mg
same,"UGCR change from baseline, Mean (SD)","Week 6, PPS",47.54 mg/mg
same,"UGCR change from baseline, Median","Week 6, PPS",42.30 mg/mg
same,"UGCR, Mean (SD)","Week 6, PPS",48.64 mg/mg
same,"UGCR, Median","Week 6, PPS",43.08 mg/mg
same,"HDL-C change from baseline, ANCOVA LS mean (SE)","Week 6, mPPS1",1.60(0.61) mg/dL
same,"HDL-C change from baseline, Mean (SD)","Week 6, mPPS1",1.94(5.62) mg/dL
same,"HDL-C change from baseline, Median","Week 6, mPPS1",1.00 mg/dL
same,"HDL-C, Mean (SD)","Week 6, mPPS1",48.83(10.55) mg/dL
same,"HDL-C, Median","Week 6, mPPS1",48.50 mg/dL
same,"LDL-C change from baseline, ANCOVA LS mean (SE)","Week 6, mPPS1",4.20(1.95) mg/dL
same,"LDL-C change from baseline, Mean (SD)","Week 6, mPPS1",4.87(19.92) mg/dL
same,"LDL-C change from baseline, Median","Week 6, mPPS1",3.00 mg/dL
same,"LDL-C, Mean (SD)","Week 6, mPPS1",81.20(28.87) mg/dL
same,"LDL-C, Median","Week 6, mPPS1",76.50 mg/dL
same,"Triglycerides change from baseline, ANCOVA LS mean (SE)","Week 6, mPPS1",−10.14(7.09) mg/dL
same,"Triglycerides change from baseline, Mean (SD)","Week 6, mPPS1",−11.86(54.93) mg/dL
same,"Triglycerides change from baseline, Median","Week 6, mPPS1",-2.00 mg/dL
same,"Triglycerides, Mean (SD)","Week 6, mPPS1",120.41(53.12) mg/dL
same,"Triglycerides, Median","Week 6, mPPS1",104.50 mg/dL
same,"Diastolic blood pressure change from baseline, ANCOVA LS mean (SE)","Week 6, mPPS2",−1.47 mmHg
same,"Diastolic blood pressure change from baseline, Mean (SD)","Week 6, mPPS2",−1.10 mmHg
same,"Diastolic blood pressure change from baseline, Median","Week 6, mPPS2",0.00 mmHg
same,"Diastolic blood pressure, Mean (SD)","Week 6, mPPS2",74.57 mmHg
same,"Diastolic blood pressure, Median","Week 6, mPPS2",75.00 mmHg
same,"Systolic blood pressure change from baseline, ANCOVA LS mean (SE)","Week 6, mPPS2",−2.71(1.06) mmHg
same,"Systolic blood pressure change from baseline, Mean (SD)","Week 6, mPPS2",−1.98(11.14) mmHg
same,"Systolic blood pressure change from baseline, Median","Week 6, mPPS2",−1.50 mmHg
same,"Systolic blood pressure, Mean (SD)","Week 6, mPPS2",125.24(13.01) mmHg
same,"Systolic blood pressure, Median","Week 6, mPPS2",126.00 mmHg
same,"Adiponectin change from baseline, ANCOVA LS mean (SE)","Week 12, PPS",1.02 µg/mL
same,"Adiponectin change from baseline, Mean (SD)","Week 12, PPS",1.08 µg/mL
same,"Adiponectin change from baseline, Median","Week 12, PPS",0.83 ng/mL
same,"Adiponectin, Mean (SD)","Week 12, PPS",7.76 µg/mL
same,"Adiponectin, Median","Week 12, PPS",6.53 µg/mL
same,"HOMA-IR change from baseline, ANCOVA LS mean (SE)","Week 12, PPS",−1.60
same,"HOMA-IR change from baseline, Mean (SD)","Week 12, PPS",−1.74
same,"HOMA-IR change from baseline, Median","Week 12, PPS",−1.27
same,"HOMA-IR, Mean (SD)","Week 12, PPS",2.17
same,"HOMA-IR, Median","Week 12, PPS",1.89
same,"HOMA-β change from baseline, ANCOVA LS mean (SE)","Week 12, PPS",8.75
same,"HOMA-β change from baseline, Mean (SD)","Week 12, PPS",8.97
same,"HOMA-β change from baseline, Median","Week 12, PPS",4.55
same,"HOMA-β, Mean (SD)","Week 12, PPS",53.77
same,"HOMA-β, Median","Week 12, PPS",45.50
